Reference: ChEMBL document CHEMBL4507305, “Data for DCP probe TP-024” (2021)

Assays:
Details in all cases: Compound concentration 1000.0 nM
[1] = test system: Tyrosine-protein kinase ABL1 (Homo sapiens), P00519 [Q252H]
[2] = biological target: Activin receptor type-2B (Homo sapiens) (UniProt Q13705)
[3] = biological target: Serine/threonine-protein kinase BRSK1 (Homo sapiens) (UniProt Q8TDC3)
[4] = biological target: Calcium/calmodulin-dependent protein kinase type II subunit beta (Homo sapiens) (UniProt Q13554)
[5] = biological target: Peripheral plasma membrane protein CASK (Homo sapiens) (UniProt O14936)
[6] = biological target: Cyclin-dependent kinase 11B (Homo sapiens) (UniProt P21127)
[7] = biological target: Cyclin-dependent kinase 4 (Homo sapiens) (UniProt P11802)
[8] = biological target: Cyclin-dependent kinase 4 (Homo sapiens) (UniProt P11802); remark: listed apart in the source
[9] = biological target: Cyclin-dependent kinase 8 (Homo sapiens) (UniProt P49336)
[10] = biological target: Dual specificity protein kinase CLK4 (Homo sapiens) (UniProt Q9HAZ1)
[11] = biological target: Casein kinase I isoform gamma-3 (Homo sapiens) (UniProt Q9Y6M4)
[12] = biological target: Death-associated protein kinase 2 (Homo sapiens) (UniProt Q9UIK4)
[13] = biological target: Mitogen-activated protein kinase kinase kinase 12 (Homo sapiens) (UniProt Q12852)
[14] = biological target: Myotonin-protein kinase (Homo sapiens) (UniProt Q09013)
[15] = biological target: Serine/threonine-protein kinase MRCK gamma (Homo sapiens) (UniProt Q6DT37)
[16] = biological target: Serine/threonine-protein kinase 17B (Homo sapiens) (UniProt O94768)
[17] = test system: Epidermal growth factor receptor (Homo sapiens), P00533 [UNDEFINED MUTATION]
[18] = biological target: Ephrin type-B receptor 6 (Homo sapiens) (UniProt O15197)
[19] = biological target: Mitogen-activated protein kinase 3 (Homo sapiens) (UniProt P27361)
[20] = biological target: Serine/threonine-protein kinase/endoribonuclease IRE1 (Homo sapiens) (UniProt O75460)
[21] = biological target: Tyrosine-protein kinase Fer (Homo sapiens) (UniProt P16591)
[22] = biological target: Fibroblast growth factor receptor 3 (Homo sapiens) (UniProt P22607)
[23] = biological target: Mitogen-activated protein kinase kinase kinase kinase 1 (Homo sapiens) (UniProt Q92918)
[24] = test system: Mast/stem cell growth factor receptor Kit (Homo sapiens), P10721 [A829P]
[25] = test system: Mast/stem cell growth factor receptor Kit (Homo sapiens), P10721 [L576P]
[26] = biological target: Tyrosine-protein kinase Mer (Homo sapiens) (UniProt Q12866)
[27] = biological target: Mitogen-activated protein kinase kinase kinase 9 (Homo sapiens) (UniProt P80192)
[28] = biological target: Serine/threonine-protein kinase Nek1 (Homo sapiens) (UniProt Q96PY6)
[29] = biological target: Serine/threonine-protein kinase Nek11 (Homo sapiens) (UniProt Q8NG66)
[30] = biological target: Serine/threonine-protein kinase Nek9 (Homo sapiens) (UniProt Q8TD19)
[31] = biological target: Cyclin-dependent kinase 18 (Homo sapiens) (UniProt Q07002)
[32] = biological target: Serine/threonine-protein kinase pim-3 (Homo sapiens) (UniProt Q86V86)
[33] = biological target: Serine/threonine-protein kinase N1 (Homo sapiens) (UniProt Q16512)
[34] = biological target: Protein kinase C epsilon type (Homo sapiens) (UniProt Q02156)
[35] = biological target: Protein kinase C eta type (Homo sapiens) (UniProt P24723)
[36] = biological target: Receptor-interacting serine/threonine-protein kinase 1 (Homo sapiens) (UniProt Q13546)
[37] = biological target: Ribosomal protein S6 kinase alpha-1 (Homo sapiens) (UniProt Q15418)
[38] = biological target: Tyrosine-protein kinase SYK (Homo sapiens) (UniProt P43405)
[39] = biological target: Mitogen-activated protein kinase kinase kinase 7 (Homo sapiens) (UniProt O43318)
[40] = biological target: Serine/threonine-protein kinase TNNI3K (Homo sapiens) (UniProt Q59H18)
[41] = biological target: BDNF/NT-3 growth factors receptor (Homo sapiens) (UniProt Q16620)
[42] = biological target: Transient receptor potential cation channel subfamily M member 6 (Homo sapiens) (UniProt Q9BX84)
[43] = biological target: Non-receptor tyrosine-protein kinase TYK2 (Homo sapiens) (UniProt P29597)
[44] = biological target: Serine/threonine-protein kinase ULK1 (Homo sapiens) (UniProt O75385)
[45] = biological target: Vascular endothelial growth factor receptor 2 (Homo sapiens) (UniProt P35968)

Sequence of Cyclin-dependent kinase 4 (Homo sapiens) (P11802 whole entry): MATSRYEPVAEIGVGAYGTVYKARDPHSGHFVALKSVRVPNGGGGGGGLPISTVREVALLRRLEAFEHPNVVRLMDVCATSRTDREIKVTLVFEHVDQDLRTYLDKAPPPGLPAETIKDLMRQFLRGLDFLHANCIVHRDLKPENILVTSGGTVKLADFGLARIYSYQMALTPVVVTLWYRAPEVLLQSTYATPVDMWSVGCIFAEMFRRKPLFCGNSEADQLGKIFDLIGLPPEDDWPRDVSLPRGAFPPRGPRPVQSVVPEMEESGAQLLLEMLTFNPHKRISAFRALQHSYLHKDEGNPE
Sequence of Mitogen-activated protein kinase kinase kinase kinase 1 (Homo sapiens) (Q92918 whole entry, looked up): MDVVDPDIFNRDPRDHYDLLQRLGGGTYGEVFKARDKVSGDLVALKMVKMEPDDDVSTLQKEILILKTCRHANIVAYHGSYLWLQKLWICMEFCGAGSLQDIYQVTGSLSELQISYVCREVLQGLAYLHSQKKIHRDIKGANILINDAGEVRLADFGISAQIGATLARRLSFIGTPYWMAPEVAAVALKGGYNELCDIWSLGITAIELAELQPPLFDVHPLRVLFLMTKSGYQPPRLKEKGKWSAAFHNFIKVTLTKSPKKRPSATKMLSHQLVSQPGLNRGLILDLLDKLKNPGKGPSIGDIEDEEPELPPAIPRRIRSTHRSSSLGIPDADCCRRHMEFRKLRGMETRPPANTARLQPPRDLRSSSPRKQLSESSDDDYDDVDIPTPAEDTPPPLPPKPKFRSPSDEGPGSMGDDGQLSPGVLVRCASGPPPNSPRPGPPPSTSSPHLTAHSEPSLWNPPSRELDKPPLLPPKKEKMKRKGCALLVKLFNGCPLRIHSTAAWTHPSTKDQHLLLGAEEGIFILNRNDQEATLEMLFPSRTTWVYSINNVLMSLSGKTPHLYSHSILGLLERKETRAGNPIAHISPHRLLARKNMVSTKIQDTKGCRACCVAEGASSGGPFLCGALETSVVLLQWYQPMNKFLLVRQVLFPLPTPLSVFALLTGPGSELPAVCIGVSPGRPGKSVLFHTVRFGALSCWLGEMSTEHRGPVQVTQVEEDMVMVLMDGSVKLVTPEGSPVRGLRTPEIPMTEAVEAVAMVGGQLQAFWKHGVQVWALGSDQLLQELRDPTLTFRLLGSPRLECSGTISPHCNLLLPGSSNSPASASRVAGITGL
Sequence of Calcium/calmodulin-dependent protein kinase type II subunit beta (Homo sapiens) (Q13554 whole entry): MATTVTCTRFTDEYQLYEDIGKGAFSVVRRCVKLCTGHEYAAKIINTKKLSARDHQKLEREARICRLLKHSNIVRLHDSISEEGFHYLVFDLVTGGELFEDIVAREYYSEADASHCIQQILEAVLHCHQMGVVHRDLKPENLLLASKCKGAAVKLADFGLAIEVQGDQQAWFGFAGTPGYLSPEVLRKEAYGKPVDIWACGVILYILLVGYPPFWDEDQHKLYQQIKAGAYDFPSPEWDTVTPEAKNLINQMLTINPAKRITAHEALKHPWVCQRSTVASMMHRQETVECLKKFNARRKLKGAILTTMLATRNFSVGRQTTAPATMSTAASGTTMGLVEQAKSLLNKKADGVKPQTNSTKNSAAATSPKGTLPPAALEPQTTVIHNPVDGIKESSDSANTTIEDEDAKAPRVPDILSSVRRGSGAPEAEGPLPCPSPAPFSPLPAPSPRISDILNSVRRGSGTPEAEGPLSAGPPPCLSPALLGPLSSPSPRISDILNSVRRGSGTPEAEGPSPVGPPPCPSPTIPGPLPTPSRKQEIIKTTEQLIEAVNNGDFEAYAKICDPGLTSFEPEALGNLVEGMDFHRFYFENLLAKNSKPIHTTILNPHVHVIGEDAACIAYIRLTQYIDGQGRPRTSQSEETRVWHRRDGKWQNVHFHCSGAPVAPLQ
Sequence of Tyrosine-protein kinase Fer (Homo sapiens) (P16591 whole entry, looked up): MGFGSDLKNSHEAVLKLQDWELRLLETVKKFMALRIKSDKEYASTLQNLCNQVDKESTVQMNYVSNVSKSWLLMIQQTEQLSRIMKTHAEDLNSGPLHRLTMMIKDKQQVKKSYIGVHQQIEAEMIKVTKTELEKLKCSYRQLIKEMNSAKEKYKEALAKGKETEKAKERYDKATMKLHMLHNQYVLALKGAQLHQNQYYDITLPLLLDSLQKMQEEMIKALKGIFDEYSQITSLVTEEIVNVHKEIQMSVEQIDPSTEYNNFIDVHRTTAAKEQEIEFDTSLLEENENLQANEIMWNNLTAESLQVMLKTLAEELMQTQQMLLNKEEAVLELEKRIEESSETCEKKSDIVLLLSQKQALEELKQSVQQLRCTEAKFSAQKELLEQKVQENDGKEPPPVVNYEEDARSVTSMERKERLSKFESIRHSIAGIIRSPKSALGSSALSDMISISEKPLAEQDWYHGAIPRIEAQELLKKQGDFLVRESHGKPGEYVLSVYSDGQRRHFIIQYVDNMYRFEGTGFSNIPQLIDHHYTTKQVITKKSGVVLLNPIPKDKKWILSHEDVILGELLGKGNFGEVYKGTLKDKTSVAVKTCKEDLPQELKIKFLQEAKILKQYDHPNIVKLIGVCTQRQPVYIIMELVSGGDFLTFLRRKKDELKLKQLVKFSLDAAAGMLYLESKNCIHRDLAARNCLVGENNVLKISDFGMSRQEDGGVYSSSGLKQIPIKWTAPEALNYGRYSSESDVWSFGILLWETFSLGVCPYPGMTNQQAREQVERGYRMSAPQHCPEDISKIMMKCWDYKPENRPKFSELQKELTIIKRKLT
Sequence of Serine/threonine-protein kinase/endoribonuclease IRE1 (Homo sapiens) (O75460 19-977 limits assumed): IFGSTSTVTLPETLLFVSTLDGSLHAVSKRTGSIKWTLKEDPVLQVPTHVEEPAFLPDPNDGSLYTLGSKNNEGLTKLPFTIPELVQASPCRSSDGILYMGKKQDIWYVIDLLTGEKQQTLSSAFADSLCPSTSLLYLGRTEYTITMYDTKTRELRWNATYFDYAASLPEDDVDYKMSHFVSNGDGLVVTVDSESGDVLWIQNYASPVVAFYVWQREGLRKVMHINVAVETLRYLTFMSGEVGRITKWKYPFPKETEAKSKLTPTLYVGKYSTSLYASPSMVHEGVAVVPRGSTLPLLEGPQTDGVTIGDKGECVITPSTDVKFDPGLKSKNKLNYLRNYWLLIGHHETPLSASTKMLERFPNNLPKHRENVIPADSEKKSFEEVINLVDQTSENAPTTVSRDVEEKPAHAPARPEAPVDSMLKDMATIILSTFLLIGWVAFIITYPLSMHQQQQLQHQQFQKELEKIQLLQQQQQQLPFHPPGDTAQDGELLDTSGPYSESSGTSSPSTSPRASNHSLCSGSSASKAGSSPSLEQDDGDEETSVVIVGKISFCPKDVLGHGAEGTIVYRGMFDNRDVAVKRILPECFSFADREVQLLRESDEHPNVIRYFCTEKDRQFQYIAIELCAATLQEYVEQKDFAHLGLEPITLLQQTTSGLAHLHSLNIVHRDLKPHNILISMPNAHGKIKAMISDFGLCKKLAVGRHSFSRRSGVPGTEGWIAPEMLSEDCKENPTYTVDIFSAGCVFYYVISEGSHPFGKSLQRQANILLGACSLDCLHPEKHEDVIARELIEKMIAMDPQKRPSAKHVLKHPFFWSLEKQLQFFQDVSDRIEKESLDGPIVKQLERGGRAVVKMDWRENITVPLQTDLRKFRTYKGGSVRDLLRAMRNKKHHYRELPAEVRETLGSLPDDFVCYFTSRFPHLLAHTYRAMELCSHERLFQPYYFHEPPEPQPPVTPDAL
Sequence of Mitogen-activated protein kinase kinase kinase 12 (Homo sapiens) (Q12852 whole entry): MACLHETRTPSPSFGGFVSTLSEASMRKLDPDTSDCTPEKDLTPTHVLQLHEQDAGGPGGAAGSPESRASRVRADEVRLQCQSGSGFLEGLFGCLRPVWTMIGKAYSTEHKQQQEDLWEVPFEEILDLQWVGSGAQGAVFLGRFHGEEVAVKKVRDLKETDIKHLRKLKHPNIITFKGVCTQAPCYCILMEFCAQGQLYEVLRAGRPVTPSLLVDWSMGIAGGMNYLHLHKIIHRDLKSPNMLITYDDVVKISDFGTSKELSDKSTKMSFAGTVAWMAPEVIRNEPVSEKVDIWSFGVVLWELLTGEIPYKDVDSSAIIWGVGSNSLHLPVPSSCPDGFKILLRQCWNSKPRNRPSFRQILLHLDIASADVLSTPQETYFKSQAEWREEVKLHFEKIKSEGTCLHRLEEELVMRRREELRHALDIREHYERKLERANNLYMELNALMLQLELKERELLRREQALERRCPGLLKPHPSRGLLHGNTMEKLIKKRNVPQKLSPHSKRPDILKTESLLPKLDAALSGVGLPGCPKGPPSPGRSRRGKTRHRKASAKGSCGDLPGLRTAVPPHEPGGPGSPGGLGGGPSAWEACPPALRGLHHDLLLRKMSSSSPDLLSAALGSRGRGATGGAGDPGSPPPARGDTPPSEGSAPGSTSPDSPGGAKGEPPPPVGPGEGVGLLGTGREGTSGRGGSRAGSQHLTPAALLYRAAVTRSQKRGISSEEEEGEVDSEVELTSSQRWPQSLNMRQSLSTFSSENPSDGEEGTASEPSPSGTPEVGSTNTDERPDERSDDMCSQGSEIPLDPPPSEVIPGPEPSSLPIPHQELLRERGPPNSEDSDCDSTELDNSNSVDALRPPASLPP
Sequence of Death-associated protein kinase 2 (Homo sapiens) (Q9UIK4 whole entry, looked up): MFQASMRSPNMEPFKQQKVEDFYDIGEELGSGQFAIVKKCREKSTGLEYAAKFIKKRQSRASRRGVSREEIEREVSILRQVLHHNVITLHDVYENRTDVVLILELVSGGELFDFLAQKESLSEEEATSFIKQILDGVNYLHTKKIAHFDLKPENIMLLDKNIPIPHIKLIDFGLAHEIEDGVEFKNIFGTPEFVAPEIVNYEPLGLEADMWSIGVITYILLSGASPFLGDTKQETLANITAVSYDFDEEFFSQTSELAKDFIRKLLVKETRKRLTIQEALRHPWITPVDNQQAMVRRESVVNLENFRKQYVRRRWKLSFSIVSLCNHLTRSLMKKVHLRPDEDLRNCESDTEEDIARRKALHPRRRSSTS

`Cc1cc(-n2nc(Cc3cc(F)cc(C(F)(F)F)c3)nc2C)ccc1C(N)=O` [TP-024] showed a residual activity [1] of 100%, a residual activity [2] of 100% and a residual activity [3] of 100%. The residual activity [4] was 100%, the residual activity [5] was 100% and the residual activity [6] was 100%. For the same compound, the residual activity [7] was 100%, the residual activity [8] was 100% and the residual activity [9] was 97%. It also gave a residual activity [10] of 96%, a residual activity [11] of 95% and a residual activity [12] of 95%. For the same compound, the residual activity [13] was 100%, the residual activity [14] was 100% and the residual activity [15] was 100%. For the same compound, the residual activity [16] was 81%, the residual activity [17] was 100% and the residual activity [18] was 100%. For the same compound, the residual activity [19] was 100%, the residual activity [20] was 100% and the residual activity [21] was 79%. It also gave a residual activity [22] of 100%, a residual activity [23] of 100% and a residual activity [24] of 100%. For the same compound, the residual activity [25] was 52%, the residual activity [26] was 100% and the residual activity [27] was 100%. The residual activity [28] was 54%, the residual activity [29] was 100% and the residual activity [30] was 100%. It also gave a residual activity [31] of 100%, a residual activity [32] of 100% and a residual activity [33] of 100%. It also gave a residual activity [34] of 100%, a residual activity [35] of 97% and a residual activity [36] of 90%. For the same compound, the residual activity [37] was 100%, the residual activity [38] was 87% and the residual activity [39] was 100%. It also gave a residual activity [40] of 100%, a residual activity [41] of 98% and a residual activity [42] of 100%. For the same compound, the residual activity [43] was 100%, the residual activity [44] was 100% and the residual activity [45] was 100%.
With `Cc1nc(Cc2cccc(C(F)(F)F)c2)sc1-c1ccc(C(N)=O)nc1` [TP-024n] the residual activity [1] was 100%, the residual activity [2] was 86% and the residual activity [3] was 100%. The residual activity [4] was 100%, the residual activity [5] was 85% and the residual activity [6] was 97%. It also gave a residual activity [7] of 99%, a residual activity [8] of 90% and a residual activity [9] of 100%. It also gave a residual activity [10] of 83%, a residual activity [11] of 93% and a residual activity [12] of 89%. It also gave a residual activity [13] of 100%, a residual activity [14] of 100% and a residual activity [15] of 100%. It also gave a residual activity [16] of 79%, a residual activity [17] of 100% and a residual activity [18] of 100%. The residual activity [19] was 96%, the residual activity [20] was 100% and the residual activity [21] was 100%. The residual activity [22] was 100%, the residual activity [23] was 100% and the residual activity [24] was 96%. It also gave a residual activity [25] of 89%, a residual activity [26] of 98% and a residual activity [27] of 100%. It also gave a residual activity [28] of 41%, a residual activity [29] of 100% and a residual activity [30] of 100%. The residual activity [31] was 100%, the residual activity [32] was 100% and the residual activity [33] was 98%. For the same compound, the residual activity [34] was 100%, the residual activity [35] was 83% and the residual activity [36] was 91%. The residual activity [37] was 100%, the residual activity [38] was 100% and the residual activity [39] was 93%. The residual activity [40] was 100%, the residual activity [41] was 84% and the residual activity [42] was 88%. For the same compound, the residual activity [43] was 100%, the residual activity [44] was 100% and the residual activity [45] was 86%.
